Results taken from patent publication US10202399B2, “Dihydroxy aromatic heterocyclic compound” (Takeda Pharmaceutical Company Limited, priority 2011, dated 2019).

Columns and labels:
[1] = biological target: HEK293 cells that stably express human DAAO (Homo sapiens (Human), UniProt P14920); test: Inhibitory activity test at cellular level using DAAO-expressing cells; type: cell-based
Method: HEK293 cells that stably express human DAAO were suspended in Cellbanker solution at 5×10^6 cells/ml and cryopreserved at −80° C. At the time of measurement, the cells were centrifuged at 1000 rpm for one min and the Cellbanker solution was removed. […] A 4% DMSO buffer solution (50 mM sodium phosphate [pH 7.5], 0.02% CHAPS) of the test compound (4 μL) was added to a 384-well black, low volume plate, the cell suspension (4 μL) was added, and the mixture was incubated at room temperature for 15 min.
Reverse transcription was performed on human normal kidney tissue-derived RNA (Clontech Corp.) using reverse transcriptase (SuperScriptIII, Life Technologies Corporation) and oligo (dT) primer (Life Technologies Corporation) according to the protocol of the kit (Life Technologies Corporation) and cDNA was synthesized. Then, using human DAAO_HindIII_F represented by Sequence No. 1 and human DAAO_BamHI_R represented by Sequence No. 2, a PCR reaction (35 cycles of 98° C. for 15 sec, 55° C. for 15 sec and 68° C. for 1 min 30 sec) was performed using DNA polymerase (PrimeSTAR, TAKARA BIO INC.) and cDNA obtained as above as a template. […] The PCR product was cloned in a cloning vector (pCR2.1-TOPO Cloning Kit, Life Technologies Corporation). The sequence of the insert was determined by the dideoxy sequence method (BigDye Terminator v3.1 Cycle Sequencing Kit; Life Technologies Corporation). […]

[2] = biological target: recombinant human DAAO protein (Homo sapiens (Human), UniProt P14920); test: DAAO inhibitory activity test (H2O2/Amplex red fluorescence); type: biochemical; conditions: D-alanine substrate, Amplex red fluorescence
Method: The DAAO inhibitory activity was measured by assaying the amount of hydrogen peroxide (H2O2) produced by reacting DAAO protein with flavin adenine dinucleotide (FAD) and D-alanine. The amount of H2O2 was determined by measuring the fluorescence generated on conversion of Amplex red (manufactured by Invitrogen Co.) into resorufin by the reaction of H2O2 with horseradish peroxidase (HRP).
Escherichia coli strain BL21(DE3) (manufactured by Novagen) was transformed with the constructed human DAAO expression vector, inoculated into LB culture medium containing kanamycin at a final concentration of 20 μg/mL, and shake-cultured at 37° C. overnight. The multiplied transformant was inoculated into Terrific Broth containing kanamycin at a final concentration of 20 μg/mL, and shake-cultured at 37° C. until it reached OD600=3.0. Thereafter, the culture was cooled to 30° C., and expression was induced with 1 mM IPTG. After 20 hours, bacterial pellets were recovered by centrifugation.
The bacterial pellets recovered as above were suspended in a lysis buffer (17 mM sodium pyrophosphate buffer pH 8.3, 100 μM FAD, 1 mM sodium benzoate, 1 mM PMSF, 14 mM β-mercaptoethanol, 0.2 mg/mL lysozyme) and the bacteria were fractured by sonication. The sonicated liquid was centrifuged and the supernatant was recovered. […]

## O=c1[nH]nc(COc2ccc(Cl)cc2)cc1O [Example 254]
[1]
  IC50: 6.3 nM
[2]
  IC50: 2.7 nM
